Values after ≈ are worked out from the molar mass of the structure shown. Values joined by “and” are separate entries in the source; they are usually repeats but may differ in a detail not shown here. Identical values can stand only once. Like-named read-outs stand apart in the source and are kept apart here.
Columns and labels:
LS174T = assay: Inhibition of cancer cell growth as measured by cell number, LS174T; type: cell-based; conditions: Homo sapiens, 48 h, read-out: IC50 LS174T
HCT15 = assay: Inhibition of cancer cell growth as measured by cell number, HCT15; type: cell-based; conditions: Homo sapiens, HCT-15, 48 h, read-out: IC50 HCT15
MCF7 = assay: Inhibition of cancer cell growth as measured by cell number, MCF7; type: cell-based, human; conditions: Homo sapiens, MCF7, 48 h, read-out: IC50 MCF7, cell number, Sulforhodamine B, 48 hours exposure;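 note: MCF7 was included as a line with little or no EGFR or HER2/neu expression, in contrast to the receptor-overexpressing lines of the panel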
Text: (§1) The cell lines were chosen since they overexpressed epidermal growth factor receptor (EGFR) (i.e. A431) or HER2/neu (SKBR3), or had little to no expression of the these receptors (SW620, LOX, MCF7).

[1] = biological target: epidermal growth factor receptor kinase (Homo sapiens, UniProt P00533); assay: biochemical
Chain of epidermal growth factor receptor kinase (P00533 25-1210): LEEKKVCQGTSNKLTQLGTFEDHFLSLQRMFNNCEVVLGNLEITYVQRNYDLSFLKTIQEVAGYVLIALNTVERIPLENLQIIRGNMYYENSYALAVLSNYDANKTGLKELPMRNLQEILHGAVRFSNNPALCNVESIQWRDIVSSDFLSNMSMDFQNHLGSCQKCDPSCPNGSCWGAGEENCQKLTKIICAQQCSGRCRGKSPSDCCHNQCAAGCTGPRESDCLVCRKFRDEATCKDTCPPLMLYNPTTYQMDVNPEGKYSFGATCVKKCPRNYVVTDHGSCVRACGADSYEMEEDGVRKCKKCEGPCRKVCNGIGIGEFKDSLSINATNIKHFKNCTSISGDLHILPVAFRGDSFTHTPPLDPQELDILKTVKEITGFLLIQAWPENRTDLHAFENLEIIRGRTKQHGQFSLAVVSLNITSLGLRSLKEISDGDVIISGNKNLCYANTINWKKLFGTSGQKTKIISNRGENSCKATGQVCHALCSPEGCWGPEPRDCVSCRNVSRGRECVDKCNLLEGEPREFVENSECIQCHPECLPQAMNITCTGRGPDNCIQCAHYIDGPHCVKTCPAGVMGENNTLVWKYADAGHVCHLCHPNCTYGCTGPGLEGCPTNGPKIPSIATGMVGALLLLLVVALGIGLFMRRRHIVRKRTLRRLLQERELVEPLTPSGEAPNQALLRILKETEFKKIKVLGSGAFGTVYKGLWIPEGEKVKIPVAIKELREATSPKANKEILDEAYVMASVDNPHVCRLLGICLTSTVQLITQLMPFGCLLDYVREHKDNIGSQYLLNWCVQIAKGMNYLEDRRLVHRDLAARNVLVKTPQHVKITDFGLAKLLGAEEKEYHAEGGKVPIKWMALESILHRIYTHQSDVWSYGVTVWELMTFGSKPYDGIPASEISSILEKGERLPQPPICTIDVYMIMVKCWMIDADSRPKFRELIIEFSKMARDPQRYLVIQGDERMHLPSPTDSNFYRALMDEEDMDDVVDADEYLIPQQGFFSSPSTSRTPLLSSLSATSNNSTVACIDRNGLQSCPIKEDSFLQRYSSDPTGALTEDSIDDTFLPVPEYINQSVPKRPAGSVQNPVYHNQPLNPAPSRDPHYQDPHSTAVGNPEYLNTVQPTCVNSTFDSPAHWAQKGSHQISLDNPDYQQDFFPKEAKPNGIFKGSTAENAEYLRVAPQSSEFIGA

SW948 = assay: Inhibition of cancer cell growth as measured by cell number, SW948; type: cell-based; conditions: Homo sapiens, SW948, 48 h, read-out: IC50 SW948
SKBR3 = assay: Inhibition of cancer cell growth as measured by cell number, SKBR3; type: cell-based, human; conditions: Homo sapiens, SK-BR-3, 48 h, read-out: IC50 SKBR3, cell number, Sulforhodamine B, 48 hours exposure;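 note: SK-BR-3 cells were selected as a line overexpressing HER2/neu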
Text: as §1

A549 = assay: Inhibition of cancer cell growth as measured by cell number, A549; type: cell-based; conditions: Homo sapiens, A549, 48 h, read-out: IC50 A549
T47D = assay: Inhibition of cancer cell growth as measured by cell number, T47D; type: cell-based; conditions: Homo sapiens, 48 h, read-out: IC50 T47D
A2780DDP = assay: Inhibition of cancer cell growth as measured by cell number, A2780DDP; type: cell-based; conditions: Homo sapiens, 48 h, read-out: IC50 A2780DDP
CACO2 = assay: Inhibition of cancer cell growth as measured by cell number, CACO2; type: cell-based; conditions: Homo sapiens, Caco-2, 48 h, read-out: IC50 CACO2
LNCAP = assay: Inhibition of cancer cell growth as measured by cell number, LNCAP; type: cell-based; conditions: Homo sapiens, 48 h, read-out: IC50 LNCAP
A27805 = assay: Inhibition of cancer cell growth as measured by cell number, A27805; type: cell-based; conditions: Homo sapiens, 48 h, read-out: IC50 A27805
MIP = assay: Inhibition of cancer cell growth as measured by cell number, MIP; type: cell-based; conditions: Homo sapiens; cell number, Sulforhodamine B, 48 hours exposure; Table 4; read-out: IC50 MIP
B7474 = assay: Inhibition of cancer cell growth as measured by cell number, B7474; type: cell-based; conditions: Homo sapiens, 48 h, read-out: IC50 B7474
CCRF-CFM = assay: Inhibition of cancer cell growth as measured by cell number, CCRF-CFM; type: cell-based; conditions: Homo sapiens, 48 h, read-out: IC50 CCRF-CFM
NEC = assay: Inhibition of cancer cell growth as measured by cell number, NEC; type: cell-based; conditions: Homo sapiens, 48 h, read-out: IC50 NEC
HTB161 = assay: Inhibition of cancer cell growth as measured by cell number, HTB161; type: cell-based; conditions: Homo sapiens, 48 h, read-out: IC50 HTB161
HL60 = assay: Inhibition of cancer cell growth as measured by cell number, HL60; type: cell-based; conditions: Homo sapiens, HL-60, 48 h, read-out: IC50 HL60
LOX = assay: Inhibition of cancer cell growth as measured by cell number, LOX; type: cell-based, human; conditions: Homo sapiens, LOX, 48 h, read-out: IC50 LOX, cell number, Sulforhodamine B, 48 hours exposure;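 note: LOX cells served as a line with low or absent EGFR and HER2/neu expression, in contrast to receptor-overexpressing lines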
Text: as §1

A431 [2] = assay: Inhibition of cell growth by incorporation of [3H]-thymidine, A431; type: cell-based, human; conditions: Homo sapiens, A-431, read-out: IC50 A431
SW620 = assay: Inhibition of cancer cell growth as measured by cell number, SW620; type: cell-based, human; conditions: Homo sapiens, SW-620, 48 h, read-out: IC50 SW620, cell number, Sulforhodamine B, 48 hours exposure;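 note: SW620 was included as a cell line with little or no EGFR or HER2/neu expression, in contrast to receptor-overexpressing lines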
Text: as §1

COLO205 = assay: Inhibition of cancer cell growth as measured by cell number, COLO205; type: cell-based; conditions: Homo sapiens, COLO 205, 48 h, read-out: IC50 COLO205
A431 [3] = assay: Inhibition of cancer cell growth as measured by cell number, A431; type: cell-based, human; conditions: Homo sapiens, A-431, 48 h, read-out: IC50 A431, cell number, Sulforhodamine B, 48 hours exposure;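 note: human A431 line, picked because it overexpresses epidermal growth factor receptor (EGFR)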
Text: as §1

LX1 = assay: Inhibition of cancer cell growth as measured by cell number, LX1; type: cell-based; conditions: Homo sapiens, LX-1, 48 h, read-out: IC50 LX1
[4] = biological target: recombinant human MEK 1 (MAPKK) and recombinant human ERK2 (MAPK); assay: Mitogen Activated Protein Kinase (MAPK) assay, two component coupled MEK 1 / ERK2; type: biochemical; conditions: separate entries for the same compound = evaluated more than one time;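 note: MEK 1-activated ERK2 phosphorylates MBP or Myc peptide with 33P-ATP, filter capture and scintillation counting, inhibitor preincubated with ERK2 30 min at 0 °C, inhibition relative to uninhibited control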
DU145 = assay: Inhibition of cancer cell growth as measured by cell number, DU145; type: cell-based; conditions: Homo sapiens, DU-145, 48 h, read-out: IC50 DU145
CX1 = assay: Inhibition of cancer cell growth as measured by cell number, CX1; type: cell-based; conditions: Homo sapiens, CX-1, 48 h, read-out: IC50 CX1
NHEK = assay: Inhibition of cell growth by incorporation of [3H]-thymidine, NHEK; type: cell-based, human; conditions: Homo sapiens, read-out: IC50 NHEK
[5] = system: human epidermoid tumors (A431); assay: In vivo inhibition of the growth of human epidermoid tumors (A431); conditions: for S/T = No. Survivors/No. Treated: Day +28 post tumor staging; for tumor growth was inhibited: 100 mg/kg administered i.p. during days 1-10
In short: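 Female BALB/c nu/nu mice from Charles River were injected subcutaneously with 5 X 10^6 human epidermoid (A431) tumor cells. Once tumors weighed 100 to 150 mg, animals were randomized into treatment groups on day zero, and untreated controls were included. Tumor mass, calculated as (length X width^2)/2, was measured every 7 days for 28 days after staging. Relative growth was mean mass on days 7, 14, 21 and 28 divided by the day-zero mean.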

[6] = 10 mg/kg/dose IP on days 1 through 10
[7] = 50 mg/kg/dose IP on days 1 through 10
[8] = 100 mg/kg/dose IP on days 1 through 10

Work on `CCOc1cc2ncc(C#N)c(Nc3cccc(Br)c3)c2cc1OCC` [Example 47, 4-[(3-Bromophenyl)amino]6,7-diethoxy-3-quinolinecarbonitrile] yielded an IC50 (LS174T) of 0.0468 µg/mL (≈ 0.114 µM), an IC50 (HCT15) of 0.0395 µg/mL (≈ 0.0959 µM) and an IC50 (MCF7; Table 5) of 0.072 µg/mL (≈ 0.175 µM). For the same compound, the IC50 (MCF7; Table 8) was 0.02 µg/mL (≈ 0.0485 µM), the IC50 [1] was 130 nM and the IC50 (SW948) was 0.0683 µg/mL (≈ 0.166 µM). It also gave an IC50 (SKBR3; Table 7) of 0.0467 µg/mL (≈ 0.113 µM), an IC50 (SKBR3; Table 8) of under 0.01 µg/mL and an IC50 (A549) of 0.0679 µg/mL (≈ 0.165 µM). For the same compound, the IC50 (T47D) was 0.0467 µg/mL (≈ 0.113 µM), the IC50 (A2780DDP) was 0.0645 µg/mL (≈ 0.157 µM) and the IC50 (CACO2) was 0.0701 µg/mL (≈ 0.17 µM). For the same compound, the IC50 (LNCAP) was 0.0337 µg/mL (≈ 0.0816 µM), the IC50 (A27805) was 0.053 µg/mL (≈ 0.129 µM) and the IC50 (MIP) was 0.0693 µg/mL (≈ 0.168 µM). For the same compound, the IC50 (B7474) was 0.233 µg/mL (≈ 0.566 µM), the IC50 (CCRF-CFM) was 0.068 µg/mL (≈ 0.165 µM) and the IC50 (NEC) was 0.0671 µg/mL (≈ 0.163 µM). The IC50 (HTB161) was 0.00395 µg/mL (≈ 0.00957 µM), the IC50 (HL60) was 0.0625 µg/mL (≈ 0.152 µM) and the IC50 (LOX; Table 6) was 0.0605 µg/mL (≈ 0.147 µM). For the same compound, the IC50 (LOX; Table 8) was 0.03 µg/mL (≈ 0.0728 µM), the IC50 (A431 [2]) was 1500 nM and the IC50 (SW620; Table 4) was 0.0672 µg/mL (≈ 0.163 µM). For the same compound, the IC50 (SW620; Table 8) was under 0.01 µg/mL, the IC50 (COLO205) was 0.0757 µg/mL (≈ 0.184 µM) and the IC50 (A431 [3]; Table 6) was 0.0446 µg/mL (≈ 0.108 µM). For the same compound, the IC50 (A431 [3]; Table 8) was under 0.01 µg/mL, the IC50 (LX1) was 0.076 µg/mL (≈ 0.184 µM) and the IC50 [4] was 8000 nM and 5000 nM. For the same compound, the IC50 (DU145) was 0.068 µg/mL (≈ 0.165 µM), the IC50 (CX1) was 0.0618 µg/mL (≈ 0.15 µM) and the IC50 (NHEK) was 30 nM. For the same compound, the “%T/C Day 7” value [5, 6] was 69%, the “%T/C Day 14” value [5, 6] was 74% and the “%T/C Day 21” value [5, 6] was 116%. For the same compound, the “%T/C Day 28” value [5, 6] was 136%, the “S/T = No. Survivors/No. Treated” value [5, 6] was 5/5 and the “%T/C Day 7” value [5, 7] was 44 (d) %. The “%T/C Day 14” value [5, 7] was 55 (d) %, the “%T/C Day 21” value [5, 7] was 87% and the “%T/C Day 28” value [5, 7] was 102%. For the same compound, the “S/T = No. Survivors/No. Treated” value [5, 7] was 5/5, the “tumor growth was inhibited” value ([5]; day 7) was 66% and the “tumor growth was inhibited” value ([5]; day 14) was 63%. The “tumor growth was inhibited” value ([5]; day 28) was 57%, the “%T/C Day 7” value [5, 8] was 34(d) % and the “%T/C Day 14” value [5, 8] was 37(d) %. For the same compound, the “%T/C Day 21” value [5, 8] was 51%, the “%T/C Day 28” value [5, 8] was 43% and the “S/T = No. Survivors/No. Treated” value [5, 8] was 5/5.

Reference: patent EP0973746B1, “SUBSTITUTED 3-CYANO QUINOLINES” (Wyeth Holdings Corporation, priority 1997, dated 1998)
